Legend:
[1] = molecular target: GDP-bound NRAS wild-type protein (Homo sapiens, UniProt P01111); assay: Binding to NRAS by surface plasmon resonance (SPR), Single Cycle Kinetics; details: KD ratio NRAS/KRAS, SPR, GDP-bound wild-type proteins
[2] = molecular target: GDP-bound HRAS wild-type protein (Homo sapiens, UniProt P01112); assay: Binding to HRAS by surface plasmon resonance (SPR), Single Cycle Kinetics; details: KD ratio HRAS/KRAS, SPR, GDP-bound wild-type proteins
Chain of GDP-bound HRAS wild-type protein (P01112 whole entry): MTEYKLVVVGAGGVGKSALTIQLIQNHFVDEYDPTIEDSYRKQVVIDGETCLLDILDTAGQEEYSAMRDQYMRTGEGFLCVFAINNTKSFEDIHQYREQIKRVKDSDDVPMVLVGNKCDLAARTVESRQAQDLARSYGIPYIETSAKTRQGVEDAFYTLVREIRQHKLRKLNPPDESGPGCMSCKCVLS

Chain of GDP-bound NRAS wild-type protein (P01111 whole entry): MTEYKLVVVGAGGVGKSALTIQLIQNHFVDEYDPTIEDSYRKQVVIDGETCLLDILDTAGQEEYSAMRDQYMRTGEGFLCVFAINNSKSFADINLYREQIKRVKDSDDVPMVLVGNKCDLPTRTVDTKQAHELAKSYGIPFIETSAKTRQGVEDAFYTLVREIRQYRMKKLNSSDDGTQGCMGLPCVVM

Row | Compound | NRAS/KRAS (ratio of KD value with respect to GDP-bound NRAS wild-type protein to KD value with respect to KRAS) [1] | HRAS/KRAS (ratio of KD value with respect to GDP-bound HRAS wild-type protein to KD value with respect to KRAS) [2]
1 | CCC[C@H]1C(=O)N[C@@H]([C@@H](C)CC)C(=O)N(C)CC(=O)N(C)[C@H]2C/C=C\CCN(C2=O)[C@@H](Cc2ccc(C)cc2)C(=O)N(C)CC(=O)N[C@@H](CCc2cc(F)c(C(F)(F)F)c(F)c2)C(=O)N2CC3(CC3)C[C@H]2C(=O)NC2(CC(C)(C)C2)C(=O)N(C)[C@@H](CC(C)(C)C)C(=O)N(C)[C@H](C(=O)N(C)C)CC(=O)N1C [PP2997] | A (a compound having 10 or more and less than 20 is denoted as A) | B (a compound having 3 or more and less than 10 is denoted as B)
2 | CCC[C@H]1C(=O)N[C@@H](C2CCCCC2)C(=O)N(C)CC(=O)N(C)[C@H]2C/C=C\CCN(C2=O)[C@@H](Cc2ccc(C)cc2)C(=O)N(C)CC(=O)N[C@@H](CCc2ccc(C(F)(F)F)c(Cl)c2)C(=O)N2C[C@H](OCC)C[C@H]2C(=O)NC2(CC(C)(C)C2)C(=O)N(C)[C@@H](C2CCCC2)C(=O)N(C)[C@H](C(=O)N(C)C)CC(=O)N1C [PP2998] | A (a compound having 10 or more and less than 20 is denoted as A) | AA (a compound having 20 or more is denoted as AA)
3 | CCC[C@H]1C(=O)N[C@@H](C2CCCC2)C(=O)N(C)CC(=O)N(C)[C@H]2C/C=C\CCN(C2=O)[C@@H](Cc2ccc(C)cc2)C(=O)N(C)CC(=O)N[C@@H](CCc2cc(F)c(C(F)(F)F)c(F)c2)C(=O)N2CC3(CC3)C[C@H]2C(=O)NC2(CC(C)(C)C2)C(=O)N(C)[C@@H](CC(C)(C)C)C(=O)N(C)[C@H](C(=O)N(C)C)CC(=O)N1C [PP2999] | AA (a compound having 20 or more is denoted as AA) | A (a compound having 10 or more and less than 20 is denoted as A)
4 | CCC[C@H]1C(=O)N[C@@H](C2CCOCC2)C(=O)N(C)CC(=O)N(C)[C@H]2C/C=C\CCN(C2=O)[C@@H](Cc2ccc(C(F)(F)F)cc2)C(=O)N(C)CC(=O)N[C@@H](CCc2ccc(C(F)(F)F)c(Cl)c2)C(=O)N2C[C@H](OCC)C[C@H]2C(=O)NC2(CC(C)(C)C2)C(=O)N(C)[C@@H](C2CCCC2)C(=O)N(C)[C@H](C(=O)N(C)C)CC(=O)N1C [PP3000] | AA (a compound having 20 or more is denoted as AA) | A (a compound having 10 or more and less than 20 is denoted as A)
5 | CCC[C@H]1C(=O)N[C@@H](C2CCOCC2)C(=O)N(C)CC(=O)N(C)[C@H]2C/C=C\CCN(C2=O)[C@@H](Cc2ccc(C)cc2)C(=O)N(C)CC(=O)N[C@@H](CCc2ccc(C(F)(F)F)c(Cl)c2)C(=O)N2C[C@H](OCC)C[C@H]2C(=O)NC2(CC(C)(C)C2)C(=O)N(C)[C@@H](C2CCCC2)C(=O)N(C)[C@H](C(=O)N(C)C)CC(=O)N1C [PP3002] | A (a compound having 10 or more and less than 20 is denoted as A) | A (a compound having 10 or more and less than 20 is denoted as A)
6 | CCC[C@H]1C(=O)N[C@@H]([C@@H](C)CC)C(=O)N(C)CC(=O)N(C)[C@H]2C/C=C\CCN(C2=O)[C@@H](Cc2ccc(C)cc2)C(=O)N(C)CC(=O)N[C@@H](CCc2cc(F)c(C(F)(F)F)c(F)c2)C(=O)N2CC3(CC3)C[C@H]2C(=O)NC2(CC(C)(C)C2)C(=O)N(C)[C@@H](CC(F)(F)F)C(=O)N(C)[C@H](C(=O)N(C)C)CC(=O)N1C [PP3003] | AA (a compound having 20 or more is denoted as AA) | A (a compound having 10 or more and less than 20 is denoted as A)
7 | CCC[C@H]1C(=O)N[C@@H](C2CCCC2)C(=O)N(C)CC(=O)N(C)[C@H]2C/C=C\CCN(C2=O)[C@@H](Cc2ccc(C)cc2)C(=O)N(C)CC(=O)N[C@@H](CCc2ccc(C(F)(F)F)c(OC)c2)C(=O)N2C[C@H](OCC)C[C@H]2C(=O)NC2(CC(C)(C)C2)C(=O)N(C)[C@@H](CC(C)(C)C)C(=O)N(C)[C@H](C(=O)N(C)C)CC(=O)N1C [PP3005] | A (a compound having 10 or more and less than 20 is denoted as A) | B (a compound having 3 or more and less than 10 is denoted as B)
8 | CCC[C@H]1C(=O)N[C@@H]([C@@H](C)CC)C(=O)N(C)CC(=O)N(C)[C@H]2C/C=C\CCN(C2=O)[C@@H](Cc2ccc(C)cc2)C(=O)N(C)CC(=O)N[C@@H](CCc2ccc(C(F)(F)F)c(OC)c2)C(=O)N2C[C@H](OCC)C[C@H]2C(=O)NC2(CC(C)(C)C2)C(=O)N(C)[C@@H]([C@@H](C)CC)C(=O)N(C)[C@H](C(=O)N(C)C)CC(=O)N1C [PP3006] | A (a compound having 10 or more and less than 20 is denoted as A) | A (a compound having 10 or more and less than 20 is denoted as A)
9 | CCC[C@H]1C(=O)N[C@@H]([C@@H](C)CC)C(=O)N(C)CC(=O)N(C)[C@H]2C/C=C\CCN(C2=O)[C@@H](Cc2ccc(C)cc2)C(=O)N(C)CC(=O)N[C@@H](CCc2ccc(C(F)(F)F)c(OC)c2)C(=O)N2C[C@H](OCC)C[C@H]2C(=O)NC2(CC(C)(C)C2)C(=O)N(C)[C@@H](CC(F)(F)F)C(=O)N(C)[C@H](C(=O)N(C)C)CC(=O)N1C [PP3007] | A (a compound having 10 or more and less than 20 is denoted as A) | A (a compound having 10 or more and less than 20 is denoted as A)
10 | CCC[C@H]1C(=O)N[C@@H]([C@@H](C)CC)C(=O)N(C)CC(=O)N(C)[C@H]2C/C=C\CCN(C2=O)[C@@H](Cc2ccc(C)cc2)C(=O)N(C)CC(=O)N[C@@H](CCc2ccc(C(F)(F)F)c(OC)c2)C(=O)N2C[C@H](OCC)C[C@H]2C(=O)NC2(CC(C)(C)C2)C(=O)N(C)[C@@H](CC(C)C)C(=O)N(C)[C@H](C(=O)N(C)C)CC(=O)N1C [PP3008] | A (a compound having 10 or more and less than 20 is denoted as A) | A (a compound having 10 or more and less than 20 is denoted as A)
11 | CCC[C@H]1C(=O)N[C@@H]([C@@H](C)CC)C(=O)N(C)CC(=O)N(C)[C@H]2C/C=C\CCN(C2=O)[C@@H](Cc2ccc(C)cc2)C(=O)N(C)CC(=O)N[C@@H](CCc2ccc(C(F)(F)F)c(OC)c2)C(=O)N2CC3(CC3)C[C@H]2C(=O)NC2(CC(C)(C)C2)C(=O)N(C)[C@@H](CC(C)(C)C)C(=O)N(C)[C@H](C(=O)N(C)C)CC(=O)N1C [PP3009] | A (a compound having 10 or more and less than 20 is denoted as A) | A (a compound having 10 or more and less than 20 is denoted as A)
12 | CCC[C@H]1C(=O)N[C@@H](C2CCCC2)C(=O)N(C)CC(=O)N(C)[C@H]2C/C=C\CCN(C2=O)[C@@H](Cc2ccc(C)cc2)C(=O)N(C)CC(=O)N[C@@H](CCc2ccc(C(F)(F)F)c(OC)c2)C(=O)N2CC3(CC3)C[C@H]2C(=O)NC2(CC(C)(C)C2)C(=O)N(C)[C@@H](CC(C)(C)C)C(=O)N(C)[C@H](C(=O)N(C)C)CC(=O)N1C [PP3010] | B (a compound having 3 or more and less than 10 is denoted as B) | B (a compound having 3 or more and less than 10 is denoted as B)
13 | CCC[C@H]1C(=O)N[C@@H]([C@@H](C)CC)C(=O)N(C)CC(=O)N(C)[C@H]2C/C=C\CCN(C2=O)[C@@H](Cc2ccc(C)cc2)C(=O)N(C)CC(=O)N[C@@H](CCc2ccc(C(F)(F)F)c(OC)c2)C(=O)N2CC3(CC3)C[C@H]2C(=O)NC2(CC(C)(C)C2)C(=O)N(C)[C@@H]([C@@H](C)CC)C(=O)N(C)[C@H](C(=O)N(C)C)CC(=O)N1C [PP3011] | A (a compound having 10 or more and less than 20 is denoted as A) | B (a compound having 3 or more and less than 10 is denoted as B)
14 | CCC[C@H]1C(=O)N[C@@H]([C@@H](C)CC)C(=O)N(C)CC(=O)N(C)[C@H]2C/C=C\CCN(C2=O)[C@@H](Cc2ccc(C)cc2)C(=O)N(C)CC(=O)N[C@@H](CCc2ccc(C(F)(F)F)c(OC)c2)C(=O)N2CC3(CC3)C[C@H]2C(=O)NC2(CC(C)(C)C2)C(=O)N(C)[C@@H](CC(F)(F)F)C(=O)N(C)[C@H](C(=O)N(C)C)CC(=O)N1C [PP3012] | A (a compound having 10 or more and less than 20 is denoted as A) | A (a compound having 10 or more and less than 20 is denoted as A)
15 | CCC[C@H]1C(=O)N[C@@H]([C@@H](C)CC)C(=O)N(C)CC(=O)N(C)[C@H]2C/C=C\CCN(C2=O)[C@@H](Cc2ccc(C)cc2)C(=O)N(C)CC(=O)N[C@@H](CCc2ccc(C(F)(F)F)c(OC)c2)C(=O)N2CC3(CC3)C[C@H]2C(=O)NC2(CC(C)(C)C2)C(=O)N(C)[C@@H](CC(C)C)C(=O)N(C)[C@H](C(=O)N(C)C)CC(=O)N1C [PP3013] | AA (a compound having 20 or more is denoted as AA) | B (a compound having 3 or more and less than 10 is denoted as B)
16 | CCC[C@H]1C(=O)N[C@@H](C2CCCCC2)C(=O)N(C)CC(=O)N(C)[C@H]2C/C=C\CCN(C2=O)[C@@H](Cc2ccc(C(F)(F)F)cc2)C(=O)N(C)CC(=O)N[C@@H](CCc2ccc(C(F)(F)F)c(Cl)c2)C(=O)N2C[C@H](OCC)C[C@H]2C(=O)NC2(CC(C)(C)C2)C(=O)N(C)[C@@H](CC(C)(C)C)C(=O)N(C)[C@H](C(=O)N(C)C)CC(=O)N1C [PP3014] | AA (a compound having 20 or more is denoted as AA) | A (a compound having 10 or more and less than 20 is denoted as A)

From patent US20250230193A1, “CYCLIC COMPOUND HAVING SELECTIVE KRAS INHIBITORY EFFECT ON HRAS AND NRAS” (CHUGAI SEIYAKU KABUSHIKI KAISHA, priority 2022, published 2025)
